Reference: patent US20190117630A1, “METHODS AND DRUG COMPOSITIONS FOR TREATING LYME DISEASE” (priority 2016, published 2019)
Where a name gives a salt, the structure may show the parent alone.

Columns and labels:
Borrelia cultures = assay: Secondary screening, Borrelia cell viability by BacTiter-Glo Assay; format: cell-based, B. burgdorferi; conditions: for efficacy (Borrelia cell viability assay): at 0.31 μM, FIG. 1B
Procedure: FIG. 1 depicts a Borrelia cell viability assay using agents (A) tetraethylthiuram disulfide, doxorubicin hydrochloride, and epirubicin hydrochloride and (B) azlocillin sodium and cephalothin sodium. The results represent mean±SD.
(§1) The Minimum Inhibitory Concentration (MIC) of the small molecules identified through screening was determined by culturing 10^6/ml Borrelia in BSK-II medium with different concentrations (0.3 μM to 160 μM) of drugs. For MIC, 1 ml cultures with respective drugs were grown in 48 well plates in triplicates, wrapped with paraffin film and placed for 72 hours at 33° C. in a humidified CO2 incubator (Forma Scientific, USA) having 5% CO2 and 95% air. Cell proliferation was assessed using bacterial counting chamber (Petroff-Hausser Counter, Horsham, Pa., USA) by phase contrast microscopy. In parallel cell proliferation was also assessed BacTiter-Glo™ Assay. The counting was performed in all the 25 squares of the central grid. The BacTiter-Glo™ Assay was performed by mixing 100 μl of culture in each well with 100 μl of BacTiter-Glo™ reagent (Promega, Madison, Wis., USA). Then, the assay was performed according to the manufacturer's instructions. Luminescence was measured on a Flex station3 micro-plate reader at luminescence 500 ms.
The viability of Borellia cultures was evaluated with BacTiter-Glo™ Assay.

[1] = tested on: doxycycline-tolerant Borrelia persisters; assay: Eradication of doxycycline-tolerant Bb persisters; format: cell-based, B. burgdorferi; conditions: 5 days, after doxycycline 2.5 μM to 40 μM for 3 days, FIG. 3B
Procedure: So to identify the drugs that kill drug-tolerant Borrelia persisters, 10^6/ml Borrelia in BSK-II medium was treated with concentrations of doxycycline ranging from 2.5 μM to 40 μM for 3 days. The doxycycline-tolerant persisters were treated with 20 μg and 40 μg Azlocillin for 5 days. After 5 days of treatment, the cultures were pelleted, washed and plated on semisolid BSK-II agarose plates for minimum 21 days. The plates were incubated for regrowth and colonies are counted. The study was performed thrice independently.

Borrelia [2] = assay: Determination of Minimum Inhibitory Concentration (MIC); format: cell-based, B. burgdorferi; conditions: Borreliella burgdorferi; 72 hours, lowest concentration with no motile spirochete by microscopy
Procedure: as §1
(§2) To confirm the efficacy of the screening MIC and MBC values were evaluated. The MIC is determined as the lowest concentration at which no motile spirochete is observed by microscopy. […] The MBC was determined by sub-culturing 20 μl of the Borrelia cultures grown at different drug concentrations in fresh BSK-II medium for 21 days. The MBC value was determined when no spirochete was observed microscopically in the culture.

Borrelia [3] = assay: Determination of Minimum Bactericidal Concentration (MBC); format: cell-based, B. burgdorferi; conditions: Borreliella burgdorferi, 504 h; sub-culture in fresh BSK-II medium for 21 days, no spirochete observed
Procedure: For determining minimum bactericidal concentration (MBC), 20 μl of the 10^6/ml Borrelia cultures grown in BSK-II medium for 72 hours at different drug concentrations were added to the fresh BSK-II medium and sub-cultured for 3 weeks. After 3 weeks of incubation period, the samples were observed microscopically for motile spirochetes in the culture. The MIC and MBC determinations were done thrice independently.
as §2

Bb = conditions: C3H mouse model, urinary bladders, heart, ear skin
Procedure: After the synergy was determined the efficacy of the drugs were studied in vivo in the following way: C3H/HeN mice of 4-6 week old were infected intradermally in the abdominal area with 0.1 ml of BSK-II medium containing 10^5 Bb with a 25G tuberculin syringe. […] Cultures were monitored up to 6 weeks for motile spirochetes using darkfield microscopy.
To evaluate the efficacy of the drugs in vivo, they were tested in a C3H mouse model.

Borrelia isolate CA8 Bss = assay: Time-kill studies; format: cell-based, B. burgdorferi sensu stricto; conditions: 1.25 μM, CA8 strain
Procedure: Time-kill studies were performed with Borrelia isolate CA8 Bss with azlocillin sodium and cefotaxime acid. To determine the rate of antimicrobial activity, 10^6/ml Borrelia cultures were grown in BSK-II medium with drugs at different concentrations. BSK-II medium with no drugs is used as a control. The antibacterial activity was determined by counting bacteria at 24 hours, 48 hours and 72 hours. The experiment was done once with triplicates.

| SMILES | MIC (Borrelia [2]) [µM] | MBC (Borrelia [3]) [µM] | further results |
| --- | --- | --- | --- |
| CC1(C)S[C@@H]2[C@H](NC(=O)[C@H](NC(=O)N3CCNC3=O)c3ccccc3)C(=O)N2[C@H]1C(=O)O [Azlocillin sodium] | ≤ 3 | ≤ 10 | efficacy (Borrelia cell viability assay) (Borrelia cultures): ~99%; elimination of doxycycline-tolerant Borrelia persisters ([1]; 20 μg): completely eliminated; elimination of doxycycline-tolerant Borrelia persisters ([1]; 40 μg): completely eliminated; elimination of Borrelia infection in vivo (failure to culture live spirochetes from tissues after treatment) (Bb): very effective in eliminating Borrelia infection |
| CO/N=C(\C(=O)N[C@@H]1C(=O)N2C(C(=O)O)=C(COC(C)=O)CS[C@H]12)c1csc(N)n1 [Cefotaxime acid] | ≤ 3 | ≤ 10 | elimination of doxycycline-tolerant Borrelia persisters ([1]; 40 μg): killed the Borrelia persisters completely; decrease of initial Borrelia inoculum, time-kill (Borrelia isolate CA8 Bss): 1 log10-unit; elimination of Borrelia infection in vivo (failure to culture live spirochetes from tissues after treatment) (Bb): very effective in eliminating Borrelia infection |
| CC(=O)[C@]1(O)Cc2c(O)c3c(c(O)c2[C@@H](O[C@H]2C[C@H](N)[C@H](O)[C@H](C)O2)C1)C(=O)c1ccccc1C3=O [Idarubicin HCl] |  | ≤ 10 |  |
| CO[C@@H]1[C@@H](O[C@@H]2O[C@H](C)[C@@H](O[C@H]3C[C@@](C)(O)[C@@H](OC(=O)CC(C)C)[C@H](C)O3)[C@H](N(C)C)[C@H]2O)[C@@H](CC=O)C[C@@H](C)[C@@H](O)/C=C/C=C/C[C@@H](C)OC(=O)C[C@H]1O [leucomycin] |  | ≤ 10 |  |

Continued, in another order:

| MIC (Borrelia [2]) [µM] | SMILES | MBC (Borrelia [3]) [µM] | further results |
| --- | --- | --- | --- |
| ≤ 3 | Cc1nnc(SCC2=C(C(=O)O)N3C(=O)[C@@H](NC(=O)Cn4cnnn4)[C@H]3SC2)s1 [Cefazolin sodium] |  |  |
| ≤ 3 | CC(=O)OCC1=C(C(=O)O)N2C(=O)[C@@H](NC(=O)Cc3cccs3)[C@H]2SC1 [Cephalothin sodium] |  | efficacy (Borrelia cell viability assay) (Borrelia cultures): ~99% |
| < 1 | COc1cccc2c1C(=O)c1c(O)c3c(c(O)c1C2=O)C[C@@](O)(C(=O)CO)C[C@@H]3O[C@H]1C[C@H](N)[C@H](O)[C@H](C)O1 [Doxorubicin hydrochloride] | < 1.5 | concentration uniformly effective against Bb (Borrelia cultures; BacTiter-Glo Assay, FIG. 1A): 0.625 µM |
| < 1 | COc1cccc2c1C(=O)c1c(O)c3c(c(O)c1C2=O)C[C@@](O)(C(=O)CO)C[C@@H]3O[C@H]1C[C@H](N)[C@@H](O)[C@H](C)O1 [Epirubicin hydrochloride] | < 1.5 | concentration uniformly effective against Bb (Borrelia cultures; BacTiter-Glo Assay, FIG. 1A): 0.625 µM |
| ≤ 3 | CC(=O)NC[C@H]1CN(c2ccc(N3CCOCC3)c(F)c2)C(=O)O1 [Linezolide] |  |  |
| ≤ 3 | CCN(CC)C(=S)SSC(=S)N(CC)CC [Tetraethylthiuram disulfide] | ≤ 10 | concentration showing complete Borrelia cell inhibition (Borrelia cultures; BacTiter-Glo Assay, FIG. 1A): 1.25 µM |
